According to article PMC11530593, “Structural mechanism of human HCN1 hyperpolarization-activated channel inhibition by ivabradine” (The Journal of Biological Chemistry, 2024):
Positions count from the first letter of the chain named.

Columns and labels:
HCN1 mutant F285A = target: T1, HCN1 mutant F285A (Homo sapiens, UniProt O60741, F285A); test: Whole-cell patch-clamp, Ih inhibition, HCN1 mutant; format: cell-based; conditions: electrophysiological recordings, read-out: IC50 (Fig. 2F)
T1 construct: Full-length WT or mutant human HCN1 were cloned into the pcDNA3.1 vector; expressed in transfected cells; host or cells: HeLa cells, pcDNA3.1 vector, transient lipofection
T1 sequence (O60741 1-890 F285A): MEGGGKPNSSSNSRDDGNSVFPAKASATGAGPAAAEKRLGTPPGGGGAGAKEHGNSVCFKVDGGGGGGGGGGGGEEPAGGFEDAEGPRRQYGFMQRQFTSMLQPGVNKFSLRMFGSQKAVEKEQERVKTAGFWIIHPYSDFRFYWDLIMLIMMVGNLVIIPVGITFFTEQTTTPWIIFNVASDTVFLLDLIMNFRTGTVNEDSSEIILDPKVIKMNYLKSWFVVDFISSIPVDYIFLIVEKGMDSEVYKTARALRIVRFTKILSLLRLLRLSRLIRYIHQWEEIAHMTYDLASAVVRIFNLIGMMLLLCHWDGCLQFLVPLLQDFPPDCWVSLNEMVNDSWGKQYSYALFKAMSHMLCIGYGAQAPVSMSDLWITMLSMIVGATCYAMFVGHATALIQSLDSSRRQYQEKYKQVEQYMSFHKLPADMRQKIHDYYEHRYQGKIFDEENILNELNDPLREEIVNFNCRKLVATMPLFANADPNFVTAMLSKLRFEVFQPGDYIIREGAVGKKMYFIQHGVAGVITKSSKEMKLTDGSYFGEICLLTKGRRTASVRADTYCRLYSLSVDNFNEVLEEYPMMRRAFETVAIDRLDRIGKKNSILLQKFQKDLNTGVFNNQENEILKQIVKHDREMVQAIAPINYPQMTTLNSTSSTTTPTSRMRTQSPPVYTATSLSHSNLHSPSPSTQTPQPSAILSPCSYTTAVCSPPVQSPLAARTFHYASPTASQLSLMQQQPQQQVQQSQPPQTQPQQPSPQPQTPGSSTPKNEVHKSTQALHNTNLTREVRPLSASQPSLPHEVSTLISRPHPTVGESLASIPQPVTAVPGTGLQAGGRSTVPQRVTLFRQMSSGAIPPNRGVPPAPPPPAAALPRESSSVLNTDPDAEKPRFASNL
Protocol: (§1) To elucidate the contribution of these residues to the inhibitory effect of ivabradine, we introduced mutations in ivabradine-interacting residues, converting them into alanines (Fig. 2F).
(§2) Full-length WT or mutant human HCN1 were cloned into the pcDNA3.1 vector for electrophysiological experiments. HeLa cells (from Thermo Fisher Scientific) cultured in Dulbecco's modified Eagle's medium (from Solarbio Life Science) + 10% fetal bovine serum (from ExCell Bio) at 37 °C were transiently transfected using lipofection, and whole-cell patch-clamp recordings were obtained using the Axon 200B amplifier (Molecular Devices) and clampex software (https://www.moleculardevices.com/products/axon-patch-clamp-system/acquisition-and-analysis-software/pclamp-software-suite), 36 to 48 h posttransfection. The extracellular solution contained 110 mM NaCl, 0.5 mM MgCl2, 1.8 mM CaCl2, 5 mM Hepes, 30 mM KCl, and pH was adjusted to 7.4 with NaOH, while the pipette solution contained 130 mM KCl, 10 mM NaCl, 0.5 mM MgCl2, 1 mM EGTA, 5 mM Hepes, and pH was adjusted to 7.4 with KOH. The recordings were performed at room temperature, voltage-clamp mode, and filtered at 1 kHz. The sampling frequency was 10 kHz, and the series resistance was limited to 5 MΩ. To elicit channel currents, step pulses of 3 s duration ranging from −180 mV to −30 mV were applied, followed by a step to −180 mV lasting 1.25 s. The tail currents evoked by the second step were used to determine the voltage-dependent activation curves and calculate the midpoint of activation potential (V1/2). The half maximal inhibitory concentration (IC50) of drugs was determined by recording currents at a pulse of −140 mV and analyzing current amplitudes at varying drug concentrations. The IC50 value was calculated using the Hill equation.

HCN1 mutant W281A = target: T2, HCN1 mutant W281A (Homo sapiens, UniProt O60741, W281A); test: Whole-cell patch-clamp, Ih inhibition, HCN1 mutant; format: cell-based; conditions: electrophysiological recordings, read-out: IC50 (Fig. 2F)
T2 construct: Full-length WT or mutant human HCN1 were cloned into the pcDNA3.1 vector; expressed in transfected cells; host or cells: HeLa cells, pcDNA3.1 vector, transient lipofection
T2 sequence (O60741 1-890 W281A): T1 sequence (O60741 1-890 F285A) with W281A, A285F
Protocol: as §1, §2

COc1cc2c(cc1OC)CC(=O)N(CCCN(C)C[C@H]1Cc3cc(OC)c(OC)cc31)CC2 [ivabradine]
IC50 (HCN1 mutant F285A): 13.4 µM | IC50 (HCN1 mutant W281A): 17.4 µM
